# Results: patent US10662205B2, “Cyclic boronic acid ester derivatives and therapeutic uses thereof” (priority 2014, dated 2020)
# Read-outs that look alike come from different tables or passages of the source.
# Assays:
# EC1010 (CMY-6) [1] = assay: Aztreonam potentiation (MPC@4); assay type: cell-based; conditions: aztreonam 4 μg/mL
# ec302 (TEM-10) [2] = assay: Aztreonam potentiation (MPC@4); assay type: cell-based; conditions: aztreonam 4 μg/mL
# CMY-2 = CMY-2 (Klebsiella pneumoniae, UniProt Q48434); assay: Inhibition of nitrocefin cleavage by purified enzyme (Ki); assay type: biochemical; conditions: nitrocefin reporter substrate; 10 min preincubation; read-out: Ki CMY-2, NCF
# Chain of CMY-2 (Q48434 21-381, species assumed): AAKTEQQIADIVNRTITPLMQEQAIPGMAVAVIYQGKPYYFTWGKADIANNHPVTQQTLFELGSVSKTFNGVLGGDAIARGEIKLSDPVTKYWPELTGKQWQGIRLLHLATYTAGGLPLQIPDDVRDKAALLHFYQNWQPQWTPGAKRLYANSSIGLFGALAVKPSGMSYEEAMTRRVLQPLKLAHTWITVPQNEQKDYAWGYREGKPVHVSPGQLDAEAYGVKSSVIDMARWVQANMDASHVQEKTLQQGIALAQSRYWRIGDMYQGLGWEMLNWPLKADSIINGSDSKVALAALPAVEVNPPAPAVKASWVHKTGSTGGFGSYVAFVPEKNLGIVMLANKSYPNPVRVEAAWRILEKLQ
# Protocol: (§1) Ki values of inhibition of purified class A, C and D enzymes were determined spectrophotometrically using nitrocefin as reporter substrate. Purified enzymes were mixed with various concentrations of inhibitors in reaction buffer and incubated for 10 min at room temperature. Nitrocefin was added and substrate cleavage profiles were recorded at 490 nm every 10 sec for 10 min. These experiments confirmed that the described compounds are inhibitors with a broad-spectrum of activity towards various β-lactamases.
# OXA-48 = OXA-48 (Klebsiella pneumoniae, UniProt Q6XEC0); assay: as above; assay type: biochemical; conditions: nitrocefin reporter substrate; 10 min preincubation; read-out: Ki OXA-48, NCF
# Chain of OXA-48 (Q6XEC0 23-265, looked up, species assumed): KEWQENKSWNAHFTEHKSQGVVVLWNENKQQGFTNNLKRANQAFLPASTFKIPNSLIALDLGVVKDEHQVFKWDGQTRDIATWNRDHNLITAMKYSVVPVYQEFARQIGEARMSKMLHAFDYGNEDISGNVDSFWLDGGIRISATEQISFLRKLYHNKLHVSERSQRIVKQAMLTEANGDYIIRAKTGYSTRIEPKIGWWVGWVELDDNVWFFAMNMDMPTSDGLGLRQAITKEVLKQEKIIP
# Protocol: as §1
# KPC-2 = KPC-2 (Klebsiella pneumoniae, UniProt Q9F663); assay: as above; assay type: biochemical; conditions: nitrocefin reporter substrate; 10 min preincubation; read-out: Ki KPC-2, NCF
# Chain of KPC-2 (Q9F663 25-293, looked up, species assumed): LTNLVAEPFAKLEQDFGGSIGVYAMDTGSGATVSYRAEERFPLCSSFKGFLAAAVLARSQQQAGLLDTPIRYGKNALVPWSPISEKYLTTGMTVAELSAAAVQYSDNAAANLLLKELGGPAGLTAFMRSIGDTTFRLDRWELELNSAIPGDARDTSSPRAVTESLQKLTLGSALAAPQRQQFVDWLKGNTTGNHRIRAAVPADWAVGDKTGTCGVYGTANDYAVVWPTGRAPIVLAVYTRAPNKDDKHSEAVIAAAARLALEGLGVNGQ
# Protocol: as §1
# ec302 (TEM-10) [3] = assay: Tigemonam potentiation (MPC@4); assay type: cell-based; conditions: tigemonam 4 μg/mL
# Oral pharmacokinetics = assay type: in vivo; conditions: rat, plasma, rats, n=3, read-out: Range of % Oral Bioavailability
# Protocol: Several compounds were tested for their oral pharmacokinetics. Rats (n=3 per compound) were administered a single oral dose. Oral doses were administered as a bolus. Plasma (˜0.3 mL) samples were collected from each rat at designated time points up to 24 hours. Blood samples were centrifuged within 5 min of collection at 12000 g for 5 min to obtain plasma. The plasma samples were stored at −80° C. until analyzed. Data were analyzed using WinNonlin.
# ECL1002 [4] = assay: Tigemonam potentiation (MPC@4); assay type: cell-based; conditions: tigemonam 4 μg/mL
# KP1005 (CTX-M-14) [5] = assay: Tigemonam potentiation (MPC@4); assay type: cell-based; conditions: tigemonam 4 μg/mL
# KP1010 (SHV-12) [6] = assay: Tigemonam potentiation (MPC@4); assay type: cell-based
# KP1004 (KPC-2) [7] = assay: Biapenem potentiation (MPC@1); conditions: biapenem 1 μg/mL
# KP1004 (KPC-2) [8] = assay: Aztreonam potentiation (MPC@4); assay type: cell-based; conditions: aztreonam 4 μg/mL
# PAM1154/KPC-2 = assay: Biapenem potentiation MPC64, efflux deficient strain; assay type: cell-based, Pseudomonas aeruginosa; parameters: unit not given here; conditions: efflux deficient (lacks MexAB-OprM); decrease biapenem MIC 64-fold, 32 to 0.5 μg/ml
# Protocol: (§2) Efflux of BLIs from Pseudomonas aeruginosa by the MexAB-OprM efflux pump was also evaluated. The plasmid expressing the gene encoding KPC-2 was introduced into two strains of P. aeruginosa, PAM1032 and PAM1154 that overexpressed or lacked MexAB-OprM, respectively. Due to expression of KPC-2 both strains became resistant to biapenem. […] Potency of BLIs to potentiate biapenem in these strains was determined. […] The ratio of MPC64 values for each BLI in PAM1032/KPC-2 (efflux proficient) and PAM1154/KPC-2 (efflux deficient) was determined to generate the Efflux Index (EI).
# KP1009 (CTX-M-15) [9] = assay: Tigemonam potentiation (MPC@4); assay type: cell-based
# ec308 (SHV-5) [10] = assay: Aztreonam potentiation (MPC@4); assay type: cell-based; conditions: aztreonam 4 μg/mL
# KP1009 (CTX-M-15) [11] = assay: Aztreonam potentiation (MPC@4); assay type: cell-based; conditions: aztreonam 4 μg/mL
# ec308 (SHV-5) [12] = assay: Tigemonam potentiation (MPC@4); assay type: cell-based; conditions: tigemonam 4 μg/mL
# SHV-12 = SHV-12 (Klebsiella pneumoniae, UniProt P0AD64, E235K/G234S/L31Q); assay: Inhibition of nitrocefin cleavage by purified enzyme (Ki); assay type: biochemical
# Chain of SHV-12 (P0AD64 22-286 L31Q/G234S/E235K): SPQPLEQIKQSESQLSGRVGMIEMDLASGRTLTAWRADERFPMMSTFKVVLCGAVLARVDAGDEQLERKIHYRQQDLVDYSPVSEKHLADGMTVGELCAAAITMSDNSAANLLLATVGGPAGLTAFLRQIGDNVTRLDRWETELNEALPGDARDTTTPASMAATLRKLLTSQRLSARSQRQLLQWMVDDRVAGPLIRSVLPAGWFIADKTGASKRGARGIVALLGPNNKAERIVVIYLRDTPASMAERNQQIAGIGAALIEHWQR
# Protocol: as §1, with “min.” for “min. These experiments confirmed that the described compounds are inhibitors with a broad-spectrum of activity towards various β-lactamases.”
# CTX-M-14 = CTX-M-14 (Escherichia coli, UniProt Q9L5C7); assay: as above; assay type: biochemical; conditions: nitrocefin reporter substrate; 10 min preincubation; read-out: Ki CTX-M-14, NCF
# Chain of CTX-M-14 (Q9L5C7 29-291): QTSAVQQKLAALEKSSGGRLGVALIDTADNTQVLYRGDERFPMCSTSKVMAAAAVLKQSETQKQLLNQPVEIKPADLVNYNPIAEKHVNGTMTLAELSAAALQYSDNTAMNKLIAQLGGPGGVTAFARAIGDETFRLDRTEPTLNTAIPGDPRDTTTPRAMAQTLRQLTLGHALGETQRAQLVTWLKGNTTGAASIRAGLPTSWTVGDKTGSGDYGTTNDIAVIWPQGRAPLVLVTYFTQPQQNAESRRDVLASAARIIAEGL
# Protocol: as §1, with “min.” for “min. These experiments confirmed that the described compounds are inhibitors with a broad-spectrum of activity towards various β-lactamases.”
# ECL1002 [13] = assay: Aztreonam potentiation (MPC@4); assay type: cell-based; conditions: aztreonam 4 μg/mL
# KP1010 (SHV-12) [14] = assay: Aztreonam potentiation (MPC@4); assay type: cell-based; conditions: aztreonam 4 μg/mL
# PAM1032/KPC-2 = assay: Biapenem potentiation MPC64, efflux proficient strain; assay type: cell-based, Pseudomonas aeruginosa; parameters: unit not given here; conditions: efflux proficient (MexAB-OprM overexpressed); decrease biapenem MIC 64-fold, 32 to 0.5 μg/ml
# Protocol: as §2
# KP1005 (CTX-M-14) [15] = assay: Aztreonam potentiation (MPC@4); assay type: cell-based; conditions: aztreonam 4 μg/mL
# KP1086 (OXA-48) = assay: Biapenem potentiation (MPC@1); conditions: biapenem 1 μg/mL
# EC1010 (CMY-6) [16] = assay: Tigemonam potentiation (MPC@4); assay type: cell-based; conditions: tigemonam 4 μg/mL; EC1010, CMY-6
# P99 = P99 (Enterobacter cloacae, UniProt P05364); assay: biochemical; conditions: nitrocefin reporter substrate; 10 min preincubation; read-out: Ki P99, NCF
# Chain of P99 (P05364 21-381): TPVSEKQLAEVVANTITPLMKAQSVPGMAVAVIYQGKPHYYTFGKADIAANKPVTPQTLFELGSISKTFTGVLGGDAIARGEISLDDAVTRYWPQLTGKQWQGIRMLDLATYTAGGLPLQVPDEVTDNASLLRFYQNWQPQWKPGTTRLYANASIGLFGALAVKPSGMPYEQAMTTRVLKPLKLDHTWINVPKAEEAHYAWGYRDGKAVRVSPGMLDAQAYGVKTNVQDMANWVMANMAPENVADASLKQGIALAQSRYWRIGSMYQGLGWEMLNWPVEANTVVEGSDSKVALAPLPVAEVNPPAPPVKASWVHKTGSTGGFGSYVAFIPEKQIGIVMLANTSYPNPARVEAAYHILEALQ
# Protocol: as §1, with “min.” for “min. These experiments confirmed that the described compounds are inhibitors with a broad-spectrum of activity towards various β-lactamases.”
SMILES,MPC@4 aztreonam potentiation (EC1010 (CMY-6) [1]),Ki (OXA-48) [nM],Ki (KPC-2) [nM],MPC@4 tigemonam potentiation (ec302 (TEM-10) [3]),MPC@4 tigemonam potentiation (ECL1002 [4]),MPC@4 tigemonam potentiation (KP1005 (CTX-M-14) [5]),MPC@4 tigemonam potentiation (KP1010 (SHV-12) [6]),MPC@1 biapenem potentiation (KP1004 (KPC-2) [7]),MPC@4 aztreonam potentiation (KP1004 (KPC-2) [8]),PAM1154/KPC-2 Biapenem MPC64 (PAM1154/KPC-2),MPC@4 tigemonam potentiation (KP1009 (CTX-M-15) [9]),MPC@4 aztreonam potentiation (ec308 (SHV-5) [10]),MPC@4 aztreonam potentiation (KP1009 (CTX-M-15) [11]),MPC@4 tigemonam potentiation (ec308 (SHV-5) [12]),Ki (SHV-12) [nM],Ki (CTX-M-14) [nM],MPC@4 aztreonam potentiation (ECL1002 [13]),MPC@4 aztreonam potentiation (KP1010 (SHV-12) [14]),PAM1032/KPC-2 Biapenem MPC64 (PAM1032/KPC-2),MPC@4 aztreonam potentiation (KP1005 (CTX-M-14) [15]),further results
"CSCC(=O)N[C@H]1CC=C[C@@H]2CC(=O)OB1O2 [Compound 1, 2-(METHYLTHIO)-N-((2R,6S)-8-OXO-9,10-DIOXA-1-BORABICYCLO[4.3.1]DEC-4-EN-2-YL)ACETAMIDE]",X (X = MPC@4 ≤ 5 μg/mL),< 100,100 to 1000,Y (Y = 5 μg/mL < MPC@4 ≤ 20 μg/mL),X (X = MPC@4 ≤ 5 μg/mL),X (X = MPC@4 ≤ 5 μg/mL),X (key: X = MPC@4 ≤ 5 μg/mL; Y = 5 μg/mL < MPC@4 ≤ 20 μg/mL; Z = MPC@4 > 20 μg/mL),X (X = MPC@1 ≤ 5 μg/mL),X (X = MPC@4 ≤ 5 μg/mL),5,X (key: X = MPC@4 ≤ 5 μg/mL; Y = 5 μg/mL < MPC@4 ≤ 20 μg/mL; Z = MPC@4 > 20 μg/mL),X (X = MPC@4 ≤ 5 μg/mL),X (X = MPC@4 ≤ 5 μg/mL),X (X = MPC@4 ≤ 5 μg/mL),< 100,< 100,X (X = MPC@4 ≤ 5 μg/mL),X (X = MPC@4 ≤ 5 μg/mL),80,X (X = MPC@4 ≤ 5 μg/mL),MPC@4 aztreonam potentiation (ec302 (TEM-10) [2]): X (X = MPC@4 ≤ 5 μg/mL); Ki (CMY-2): < 100 nM; bioavailability (Oral pharmacokinetics; single oral dose 30 mg/kg): 44 to 61%; bioavailability (Oral pharmacokinetics; single oral dose 100 mg/kg): 63 to 74%; bioavailability (Oral pharmacokinetics; single oral dose 300 mg/kg): 61 to 77%; MPC@1 biapenem potentiation (KP1086 (OXA-48)): Z (Z = MPC@1 > 20 μg/mL); MPC@4 tigemonam potentiation (EC1010 (CMY-6) [16]): X (X = MPC@4 ≤ 5 μg/mL); Ki (P99): < 100 nM
"O=C(CSC(F)F)N[C@H]1CC=C[C@@H]2CC(=O)OB1O2 [Compound 3, 2-(DIFLUOROMETHYLTHIO)-N-((2R,6S)-8-OXO-9,10-DIOXA-1-BORABICYCLO[4.3.1]DEC-4-EN-2-YL)ACETAMIDE]",X (X = MPC@4 ≤ 5 μg/mL),< 100,100 to 1000,Y (Y = 5 μg/mL < MPC@4 ≤ 20 μg/mL),X (X = MPC@4 ≤ 5 μg/mL),X (X = MPC@4 ≤ 5 μg/mL),X (key: X = MPC@4 ≤ 5 μg/mL; Y = 5 μg/mL < MPC@4 ≤ 20 μg/mL; Z = MPC@4 > 20 μg/mL),X (X = MPC@1 ≤ 5 μg/mL),X (X = MPC@4 ≤ 5 μg/mL),5,X (key: X = MPC@4 ≤ 5 μg/mL; Y = 5 μg/mL < MPC@4 ≤ 20 μg/mL; Z = MPC@4 > 20 μg/mL),X (X = MPC@4 ≤ 5 μg/mL),X (X = MPC@4 ≤ 5 μg/mL),X (X = MPC@4 ≤ 5 μg/mL),< 100,< 100,X (X = MPC@4 ≤ 5 μg/mL),X (X = MPC@4 ≤ 5 μg/mL),>80,X (X = MPC@4 ≤ 5 μg/mL),MPC@4 aztreonam potentiation (ec302 (TEM-10) [2]): X (X = MPC@4 ≤ 5 μg/mL); bioavailability (Oral pharmacokinetics; single oral dose 30 mg/kg): 28 to 54%; MPC@1 biapenem potentiation (KP1086 (OXA-48)): Z (Z = MPC@1 > 20 μg/mL); MPC@4 tigemonam potentiation (EC1010 (CMY-6) [16]): X (X = MPC@4 ≤ 5 μg/mL); Ki (P99): < 100 nM
"Cn1nnnc1SCC(=O)N[C@H]1CC=C[C@@H]2CC(=O)OB1O2 [Compound 4, 2-(1-METHYL-1H-TETRAZOL-5-YLTHIO)-N-((2R,6S)-8-OXO-9,10-DIOXA-1-BORABICYCLO[4.3.1]DEC-4-EN-2-YL)ACETAMIDE]",X (X = MPC@4 ≤ 5 μg/mL),< 100,100 to 1000,Y (Y = 5 μg/mL < MPC@4 ≤ 20 μg/mL),X (X = MPC@4 ≤ 5 μg/mL),Y (Y = 5 μg/mL < MPC@4 ≤ 20 μg/mL),X (key: X = MPC@4 ≤ 5 μg/mL; Y = 5 μg/mL < MPC@4 ≤ 20 μg/mL; Z = MPC@4 > 20 μg/mL),X (X = MPC@1 ≤ 5 μg/mL),X (X = MPC@4 ≤ 5 μg/mL),10,X (key: X = MPC@4 ≤ 5 μg/mL; Y = 5 μg/mL < MPC@4 ≤ 20 μg/mL; Z = MPC@4 > 20 μg/mL),X (X = MPC@4 ≤ 5 μg/mL),X (X = MPC@4 ≤ 5 μg/mL),X (X = MPC@4 ≤ 5 μg/mL),< 100,< 100,X (X = MPC@4 ≤ 5 μg/mL),X (X = MPC@4 ≤ 5 μg/mL),>80,X (X = MPC@4 ≤ 5 μg/mL),MPC@4 aztreonam potentiation (ec302 (TEM-10) [2]): X (X = MPC@4 ≤ 5 μg/mL); Ki (CMY-2): < 100 nM; bioavailability (Oral pharmacokinetics; single oral dose 50 mg/kg): 3.2 to 4.6%; MPC@1 biapenem potentiation (KP1086 (OXA-48)): Z (Z = MPC@1 > 20 μg/mL); MPC@4 tigemonam potentiation (EC1010 (CMY-6) [16]): X (X = MPC@4 ≤ 5 μg/mL); Ki (P99): < 100 nM
"Cn1cnnc1SCC(=O)N[C@H]1CC=C[C@@H]2CC(=O)OB1O2 [Compound 5, 2-(4-METHYL-4H-1,2,4-TRIAZOL-3-YLTHIO)-N-((2R,6S)-8-OXO-9,10-DIOXA-1-BORABICYCLO[4.3.1]DEC-4-EN-2-YL)ACETAMIDE]",X (X = MPC@4 ≤ 5 μg/mL),100 to 1000,100 to 1000,Z (Z = MPC@4 > 20 μg/mL),X (X = MPC@4 ≤ 5 μg/mL),X (X = MPC@4 ≤ 5 μg/mL),X (key: X = MPC@4 ≤ 5 μg/mL; Y = 5 μg/mL < MPC@4 ≤ 20 μg/mL; Z = MPC@4 > 20 μg/mL),X (X = MPC@1 ≤ 5 μg/mL),Y (Y = 5 μg/mL < MPC@4 ≤ 20 μg/mL),20,X (key: X = MPC@4 ≤ 5 μg/mL; Y = 5 μg/mL < MPC@4 ≤ 20 μg/mL; Z = MPC@4 > 20 μg/mL),X (X = MPC@4 ≤ 5 μg/mL),X (X = MPC@4 ≤ 5 μg/mL),X (X = MPC@4 ≤ 5 μg/mL),< 100,< 100,X (X = MPC@4 ≤ 5 μg/mL),X (X = MPC@4 ≤ 5 μg/mL),80,X (X = MPC@4 ≤ 5 μg/mL),Ki (CMY-2): < 100 nM; bioavailability (Oral pharmacokinetics; single oral dose 50 mg/kg): 2.5 to 3%; MPC@1 biapenem potentiation (KP1086 (OXA-48)): Z (Z = MPC@1 > 20 μg/mL); MPC@4 tigemonam potentiation (EC1010 (CMY-6) [16]): X (X = MPC@4 ≤ 5 μg/mL); Ki (P99): < 100 nM
